{
  "source": "patent US20170029383A1",
  "about": "“Diaminotriazine Derivatives as Herbicides” (BASF SE, priority 2014, published 2017)",
  "assay_in_all_cases": "greenhouse experiment, pre-emergence treatment",
  "details_in_all_cases": "pre-emergence method, application rate 0.500 kg/ha; scale from 0 to 100",
  "key": {"[1]": {"system": "ABUTH", "type": "in vivo, Abutilon theophrasti", "description": "(§1) The seeds of the test plants were sown separately for each species. For the pre-emergence treatment, the active ingredients, which had been suspended or emulsified in water, were applied directly after sowing by means of finely distributing nozzles. The containers were irrigated gently to promote germination and growth and subsequently covered with transparent plastic hoods until the plants had rooted. This cover caused uniform germination of the test plants, unless this had been impaired by the active ingredients. Depending on the species, the plants were kept at 10-25° C. or 20-35° C., respectively. The test period extended over 2 to 4 weeks. During this time, the plants were tended, and their response to the individual treatments was evaluated. Evaluation was carried out using a scale from 0 to 100. 100 means no emergence of the plants, or complete destruction of at least the aerial moieties, and 0 means no damage, or normal course of growth. A moderate herbicidal activity is given at values of at least 60, a good herbicidal activity is given at values of at least 70, and a very good herbicidal activity is given at values of at least 85. The plants used in the greenhouse experiments were of the following species: [table]"}, "[2]": {"system": "SETFA", "type": "in vivo, Setaria faberi", "description": "as §1"}, "[3]": {"system": "AMARE", "type": "in vivo, Amaranthus retroflexus", "description": "as §1"}},
  "data": [
    {"compound": "CC(C)Oc1cccc(F)c1Nc1nc(N)nc(C(C)(C)F)n1", "note": "[Example 1, N2-(2-fluoro-6-isopropoxy-phenyl)-6-(1-fluoro-1-methyl-ethyl)-1,3,5-triazine-2,4-diamine]", "values": [
      {"measurement": "herbicidal activity against ABUTH", "setting": "[1]", "result": "very good (a very good herbicidal activity is given at values of at least 85)"},
      {"measurement": "herbicidal activity against SETFA", "setting": "[2]", "result": "very good (a very good herbicidal activity is given at values of at least 85)"},
      {"measurement": "herbicidal activity against AMARE", "setting": "[3]", "result": "very good (a very good herbicidal activity is given at values of at least 85)"}
    ]}
  ]
}
